From patent publication US10577349B2 (Sanford Burnham Prebys Medical Discovery Institute, priority 2015, dated 2020) come the findings set out here.

One experiment has as its system A375. In words: 48 h Cytotoxicity A375. It is filed as cell-based. The conditions noted are these: Homo sapiens, A-375.
Experiment [1] concerns the target EmCV Cap-independent translation. As to the kind of experiment: In vitro translation assay, FF-EmCV-Ren construct, cap-independent (Ren luciferase). It is filed as biochemical, rabbit reticulocyte lysates. The text has this: (§1) The bicistronic dual-reporter constructs that contain the firefly luciferase (FF) sequence, followed by the (encephalomyocarditis virus) EmCV and Hepatitis C virus (HCV) IRES, respectively, and the Renilla reniformis (Ren) luciferase sequence, has been previously described (Bordeleau Me., et al. Functional characterization of IRESes by an inhibitor of the RNA helicase eIF4A. Nature chemical biology. 2006; 2:213-20). For measurement of translation from the FF-EmCV-Ren and FF-HCV-Ren constructs, rabbit reticulocyte lysates (RRL) (Life Technologies, Carlsbad, Calif., USA) and the Dual-Glo (Promega, Madison, Wis., USA) read-outs were chosen. Two μl rabbit reticulocyte lysates mixed with Translation Mix 20× (-Met) and Translation Mix 20× (-Leu) in a ratio of 1:1 were pre-incubated with test compounds in 1536-well plates for 1 h at room temperature. Then, translation was started by adding 0.1 μg RNA per well and incubated for 2 h at 30° C. After a short chill phase, 2.5 μl Dual-Glo reagent 1 was added to each well and incubated for 10 min before reading the FF luciferase activity with the ViewLux uHTS Microplate Imager (Perkin Elmer, Waltham, Mass., USA). Directly after, 2.5 μl Dual-Glo reagent 2 was dispensed to each well and incubated at room temperature for 10 min before reading the Ren luciferase activity on the ViewLux. To exclude the possibility that test compounds interfere with any of the luciferase activities, a counter assay was performed in which the compounds were added after the completion of the in vitro translation.

Experiment [2] deals with HCV cap-independent translation. In words: In vitro translation assay, FF-HCV-Ren construct, cap-independent (Ren luciferase). The experiment is classed as biochemical, rabbit reticulocyte lysates.
Excerpt: as §1

The target in experiment [3] is EmCV Cap-dependent translation. In words: In vitro translation assay, FF-EmCV-Ren construct, cap-dependent (FF luciferase). It is filed as biochemical, rabbit reticulocyte lysates.
Excerpt: as §1

The target in experiment [4] is HCV cap-dependent translation. In words: In vitro translation assay, FF-HCV-Ren construct, cap-dependent (FF luciferase). It is filed as biochemical, rabbit reticulocyte lysates.
Excerpt: as §1

Broadly, the IC50 is the concentration that gives 50% inhibition. A higher IC50 goes with lower potency. Consider `Cc1ccc(/C=C/C(=O)c2c(-c3ccccc3)c3cc(Cl)ccc3[nH]c2=O)nc1` [Compound 48, 6-Chloro-3-[3-(5-methyl-pyridin-2-yl)-acryloyl]-4-phenyl-1H-quinolin-2-one], for which the IC50 lay within 2 to 10 µM with A375; 2 to 10 µM in experiment [1]; 10 to 20 µM in experiment [2]; 2 to 10 µM in experiment [3]; 2 to 10 µM in experiment [4].

Turning to `O=C(/C=C/c1ccc(F)cc1C(F)(F)F)c1c(-c2ccccc2)c2cc(Cl)ccc2[nH]c1=O` [Compound 49, 6-Chloro-3-[3-(4-fluoro-2-trifluoromethyl-phenyl)-acryloyl]-4-phenyl-1H-quinolin-2-one], the concentration for half-maximal inhibition (IC50) was below 2 µM in the experiment on A375; 2 to 10 µM in experiment [1]; 2 to 10 µM in experiment [2]; 2 to 10 µM in experiment [3]; 2 to 10 µM in experiment [4].

For the compound `O=C(/C=C/c1ccoc1)c1c(-c2ccccc2)c2cc(Cl)ccc2[nH]c1=O` [Compound 50, 6-Chloro-3-(3-furan-3-yl-acryloyl)-4-phenyl-1H-quinolin-2-one], the IC50 is below 2 µM in the experiment on A375; 10 to 20 µM in experiment [1]; above 20 µM in experiment [2]; 2 to 10 µM in experiment [3]; above 20 µM in experiment [4].

Turning to `O=C(/C=C/c1cccs1)c1c(-c2ccccc2)c2cc(Cl)ccc2[nH]c1=O` [Compound 51, 6-Chloro-4-phenyl-3-(3-thiophen-2-yl-acryloyl)-1H-quinolin-2-one], the IC50 in the experiment on A375 is 2 to 10 µM; in experiment [1], above 20 µM; in experiment [2] it was above 20 µM; in experiment [3], above 20 µM; in experiment [4] it was 10 to 20 µM.

In the case of `O=C(/C=C/c1cnccn1)c1c(-c2ccccc2)c2cc(Cl)ccc2[nH]c1=O` [Compound 52, 6-Chloro-4-phenyl-3-(3-pyrazin-2-yl-acryloyl)-1H-quinolin-2-one], the IC50 lay within 2 to 10 µM with A375; 2 to 10 µM in experiment [1]; 2 to 10 µM in experiment [2]; 2 to 10 µM in experiment [3]; 10 to 20 µM in experiment [4].

As to `Cn1c(/C=C/C(=O)c2c(-c3ccccc3)c3cc(Cl)ccc3[nH]c2=O)nc2ccccc21` [Compound 53, 6-Chloro-3-[3-(1-methyl-1H-benzoimidazol-2-yl)-acryloyl]-4-phenyl-1H-quinolin-2-one], the IC50 (in the experiment on A375; in experiment [1]; in experiment [2]; in experiment [3]; in experiment [4]) was 2 to 10 µM throughout.

For `COc1ccc(Cn2c(/C=C/C(=O)c3c(-c4ccccc4)c4cc(Cl)ccc4[nH]c3=O)nc3cc(Cl)ccc32)cc1` [Compound 54, (E)-6-chloro-3-(3-(5-chloro-1-(4-methoxybenzyl)-1H-benzo[d]imidazol-2-yl)acryloyl)-4-phenylquinolin-2(1H)-one], the IC50 (in the experiment with A375; in experiment [1]; in experiment [2]; in experiment [3]; in experiment [4]) was 2 to 10 µM throughout.

As for `O=C(/C=C/c1nc2ccccc2n1Cc1ccccc1)c1c(-c2ccccc2)c2cc(Cl)ccc2[nH]c1=O` [Compound 55, 3-[3-(1-Benzyl-1H-benzoimidazol-2-yl)-acryloyl]-6-chloro-4-phenyl-1H-quinolin-2-one], the IC50 (in the experiment with A375; in experiment [1]; in experiment [2]; in experiment [3]; in experiment [4]) was 2 to 10 µM in each case.

For `O=C(/C=C/c1nc2ccccc2n1Cc1ccccc1)c1c(-c2ccccc2)c2cc(Cl)ccc2n(Cc2ccccc2)c1=O` [Compound 56, 1-benzyl-3-[3-(1-benzyl-1H-benzoimidazol-2-yl)-acryloyl]-6-chloro-4-phenyl-1H-quinolin-2-one], the 50% inhibitory concentration (IC50) with A375 was 2 to 10 µM; in experiment [1] it was above 20 µM; in experiment [2] it was 2 to 10 µM; in experiment [3], 2 to 10 µM; in experiment [4], 10 to 20 µM.

In the case of `COCCn1c(/C=C/C(=O)c2c(-c3ccccc3)c3cc(Cl)ccc3[nH]c2=O)nc2ccccc21` [Compound 57, 6-Chloro-3-{3-[1-(2-methoxy-ethyl)-1H-benzoimidazol-2-yl]-acryloyl}-4-phenyl-1H-quinolin-2-one], the IC50 (in the experiment on A375; in experiment [1]; in experiment [2]; in experiment [3]; in experiment [4]) was 2 to 10 µM throughout.

`CCn1c(/C=C/C(=O)c2c(-c3ccccc3)c3cc(Cl)ccc3[nH]c2=O)nc2ccccc21` [Compound 58, 6-Chloro-3-[3-(1-ethyl-1H-benzoimidazol-2-yl)-acryloyl]-4-phenyl-1H-quinolin-2-one]: the IC50 (with A375; in experiment [1]; in experiment [2]; in experiment [3]; in experiment [4]) was 2 to 10 µM each time.

As for `Cn1c(/C=C/C(=O)c2c(-c3ccccc3)c3cc(Cl)ccc3n(C)c2=O)nc2ccccc21` [Compound 59, 6-Chloro-1-methyl-3-[3-(1-methyl-1H-benzoimidazol-2-yl)-acryloyl]-4-phenyl-1H-quinolin-2-one], the IC50 (in the experiment with A375; in experiment [1]; in experiment [2]; in experiment [3]; in experiment [4]) was 2 to 10 µM each time.

On to `CCn1c(/C=C/C(=O)c2c(-c3ccccc3)c3cc(Cl)ccc3n(CC)c2=O)nc2ccccc21` [Compound 60, (E)-6-chloro-1-ethyl-3-(3-(1-ethyl-1H-benzo[d]imidazol-2-yl)acryloyl)-4-phenylquinolin-2(1H)-one], for which the IC50 with A375 was 2 to 10 µM; in experiment [1], above 20 µM; in experiment [2], 10 to 20 µM; in experiment [3], above 20 µM; in experiment [4], 10 to 20 µM.

For `O=C(/C=C/c1nc2cc(Cl)c(Cl)cc2[nH]1)c1c(-c2ccccc2)c2cc(Cl)ccc2[nH]c1=O` [Compound 63, 6-Chloro-3-[3-(5,6-dichloro-1H-benzoimidazol-2-yl)-acryloyl]-4-phenyl-1H-quinolin-2-one], the IC50 (in the experiment on A375; in experiment [1]; in experiment [2]; in experiment [3]; in experiment [4]) was 2 to 10 µM in each case.

For the compound `CCn1c(/C=C/C(=O)c2c(-c3ccccc3)c3cc(Cl)ccc3[nH]c2=O)nc2cc(Cl)c(Cl)cc21` [Compound 64, 6-Chloro-3-[3-(5,6-dichloro-1-ethyl-1H-benzoimidazol-2-yl)-acryloyl]-4-phenyl-1H-quinolin-2-one], the concentration for half-maximal inhibition (IC50) in the experiment on A375 was 2 to 10 µM; in experiment [1] it was 10 to 20 µM; in experiment [2], above 20 µM; in experiment [3] it was 2 to 10 µM; in experiment [4], 10 to 20 µM.

As for `COc1ccc2[nH]c(/C=C/C(=O)c3c(-c4ccccc4)c4cc(Cl)ccc4[nH]c3=O)nc2c1` [Compound 65, 6-Chloro-3-[3-(5-methoxy-1H-benzoimidazol-2-yl)-acryloyl]-4-phenyl-1H-quinolin-2-one], the half-maximal inhibitory concentration (IC50) in the experiment with A375 was below 2 µM; in experiment [1], 2 to 10 µM; in experiment [2], 2 to 10 µM; in experiment [3], 2 to 10 µM; in experiment [4], 2 to 10 µM.

Take `COc1cncc(/C=C/C(=O)c2c(-c3ccccc3)c3cc(Cl)ccc3[nH]c2=O)c1` [Compound 66, 3-[(2E)-3-(5-methoxy(3-pyridyl))prop-2-enoyl]-6-chloro-4-phenylhydroquinolin-2-one]: the IC50 with A375 was below 2 µM; in experiment [1], 2 to 10 µM; in experiment [2] it was 2 to 10 µM; in experiment [3], 2 to 10 µM; in experiment [4] it was 2 to 10 µM.

Regarding `O=C(CCc1cncc(F)c1)c1c(-c2ccccc2)c2cc(Cl)ccc2[nH]c1=O` [Compound 67, 6-Chloro-3-[3-(5-fluoro(3-pyridyl))propanoyl]-4-phenylhydroquinolin-2-one], the IC50 (with A375; in experiment [1]; in experiment [2]; in experiment [3]; in experiment [4]) was above 20 µM each time.

With `O=C(CCc1nc2ccccc2[nH]1)c1c(-c2ccccc2)c2cc(Cl)ccc2[nH]c1=O` [Compound 68, 3-(3-1H-Benzoimidazol-2-yl-propionyl)-6-chloro-4-phenyl-1H-quinolin-2-one], the IC50 (with A375; in experiment [1]; in experiment [2]; in experiment [3]; in experiment [4]) was above 20 µM throughout.

With `Cc1ccnc(/C=C/C(=O)c2c(-c3ccccc3)c3cc(Cl)ccc3[nH]c2=O)c1` [Compound 70, 3-[(2E)-3-(4-methyl(2-pyridyl))prop-2-enoyl]-6-chloro-4-phenylhydroquinolin-2-one], the IC50 (with A375; in experiment [1]; in experiment [2]; in experiment [3]; in experiment [4]) was 2 to 10 µM each time.
